{"source": "patent US20190008828A1", "about": "“METHODS FOR INHIBITING HUMAN IMMUNODEFICIENCY VIRUS (HIV) RELEASE FROM INFECTED CELLS” (priority 2015, published 2019)", "molecules": {"B1": {"name": "soluble human L-selectin (sCD62L) (receptor, UniProt P14151 39-332, looked up)", "chain": "WTYHYSEKPMNWQRARRFCRDNYTDLVAIQNKAEIEYLEKTLPFSRSYYWIGIRKIGGIWTWVGTNKSLTEEAENWGDGEPNNKKNKEDCVEIYIKRNKDAGKWNDDACHKLKAALCYTASCQPWSCSGHGECVEIINNYTCNCDVGYYGPQCQFVIQCEPLEAPELGTMDCTHPLGNFSFSSQCAFSCSEGTNLTGIEETTCGPFGNWSSPEPTCQVIQCEPLSAPDLGIMNCSHPLASFSFTSACTFICSEGTELIGKKKTICESSGIWSNPSPICQKLDKSFSMIKEGDYN", "notes": "also called soluble CD62L; recombinant CD62L"}}, "key": {"[1]": {"target": "T1, soluble human L-selectin (sCD62L) (Homo sapiens, UniProt P14151)", "assay": "SPR (Biacore 3000), gp120 injected over immobilized CD62L"}, "HIV-1BaL [2]": {"test_system": "HIV-1BaL", "assay": "HIV-1BaL infection of activated CD8-depleted PBMCs", "assay_type": "cell-based", "details": "for reduction of HIV-1BaL infection of CD4+ T cells: 5 μM"}, "HIV-1 viral release": {"test_system": "HIV-1 viral release", "assay": "HIV-1 release assay, CD4+ T cells of HIV-1-infected individuals", "assay_type": "cell-based", "method": "PBMCs were obtained by leukapheresis and ficoll-hypaque centrifugation. CD4+ T cells were isolated using a cell separation system (StemCell Technologies). Cells were cultured with medium alone or with plate-bound anti-CD3 and soluble anti-CD28 antibody in the absence (DMSO) or presence of BB-94 in duplicate for 48 hours. The copy number of virion-associated HIV RNA in the above cell culture supernatants was determined using the […]-1 Test, Version 2.0 (Roche Diagnostics). The limit of detection for this system is 20 copies/ml."}, "HIV-1BaL [3]": {"test_system": "HIV-1BaL", "assay": "Cell-cell transfer TZM-BL assay", "details": "TZM-BL co-incubated with HIV-1BaL-infected activated CD8-depleted PBMCs", "procedure": "For the cell-cell transfer assay, TZM-BL and TZM-62L cells were seeded in a 96-well, flat-bottom plate at 3,000 cells/well three days before the assay. Three days post infection with HIV-1BaL, activated CD8-depleted PBMCs with and without the presence of BB-94 were added to the wells at the concentration of 80×10^3, 40×10^3, 20×10^3, 10×10^3, and 5×10^3 cells/well with the volume of each well equalized using the CD8− PBMC media. Additional BB-94 was added to both the cells infected in the presence of BB-94 and a sample of cells that only received BB-94 treatment for the cell-cell transfer assay. All conditions were prepared in triplicate. The cell mixtures were incubated at 37° C. for three days, followed by lysis and measurement of the subsequent luciferase expression as per the manufacturer's instructions."}, "[4]": {"target": "T2, CD62L-Fc binding to immobilized gp120 (Homo sapiens, UniProt P14151)", "T2 construct": "Soluble gp120 and CD62L ELISA; Fc (IgG); purchased R&D Systems, Inc", "T2 sequence (P14151 39-332 limits assumed)": "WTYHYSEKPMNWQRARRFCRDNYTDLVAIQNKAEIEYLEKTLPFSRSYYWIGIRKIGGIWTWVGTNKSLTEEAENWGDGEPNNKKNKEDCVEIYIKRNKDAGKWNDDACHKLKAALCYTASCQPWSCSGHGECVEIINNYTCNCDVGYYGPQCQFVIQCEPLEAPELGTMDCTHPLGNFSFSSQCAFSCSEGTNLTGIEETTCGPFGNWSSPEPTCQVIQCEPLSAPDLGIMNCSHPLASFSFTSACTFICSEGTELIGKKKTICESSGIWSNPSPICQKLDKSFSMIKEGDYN", "assay": "Soluble gp120 and CD62L ELISA in presence of inhibitors", "details": "10 mM EDTA or 10 mg/ml carbohydrates", "method": "Fifty ng of gp120 proteins were immobilized in individual wells of a 96-well plate for 1 hour at room temperature in coating buffer (10 mM Tris [pH7.5] and 2 mM CaCl2), blocked for 1 hour using blocking buffer (10 mM Tris [pH7.5], 0.1% Tween20), and washed three times with the same buffer. […] The plate was washed five times and readout was colorimetric using a TMB substrate and analyzed on a SPECTRAMAX™ Plus 384 spectrophotometer (Molecular Devices)."}, "CD62L shedding": {"test_system": "CD62L shedding", "assay": "CD62L shedding on activated CD8-depleted PBMCs", "assay_type": "cell-based, human", "details": "100 μM concentration; supernatant CD62L by ELISA"}, "[5]": {"target": "B1", "assay": "SPR (Biacore 3000), CD62L ligand against CD62L"}, "[6]": {"target": "T3, gp120 of strain PBJ (SIV) (SIV, UniProt P19503 23-535)", "T3 sequence": "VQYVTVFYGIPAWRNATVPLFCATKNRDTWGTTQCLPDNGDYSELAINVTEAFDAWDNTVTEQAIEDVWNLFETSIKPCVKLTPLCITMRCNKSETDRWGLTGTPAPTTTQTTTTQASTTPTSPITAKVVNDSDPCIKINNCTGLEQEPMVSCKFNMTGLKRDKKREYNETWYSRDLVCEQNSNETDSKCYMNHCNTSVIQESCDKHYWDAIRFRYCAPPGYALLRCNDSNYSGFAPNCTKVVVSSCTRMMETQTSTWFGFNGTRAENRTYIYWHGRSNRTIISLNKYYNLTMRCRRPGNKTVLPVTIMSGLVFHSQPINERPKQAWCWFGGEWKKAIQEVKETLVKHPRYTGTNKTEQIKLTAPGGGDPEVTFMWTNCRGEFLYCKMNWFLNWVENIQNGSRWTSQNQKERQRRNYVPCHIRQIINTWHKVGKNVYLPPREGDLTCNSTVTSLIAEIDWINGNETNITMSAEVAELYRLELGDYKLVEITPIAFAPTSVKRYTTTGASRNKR", "assay": "SPR (Biacore 3000), gp120 injected over immobilized CD62L"}, "[7]": {"target": "T1, soluble human L-selectin (sCD62L)", "assay_type": "binding", "details": "recombinant gp120 injected over immobilized CD62L, SPR; read-out: KD (nM), Solution KD for CD62L"}}, "note": "Entries after “also recorded” stand apart in the source; their conditions may differ. Where two headings read alike, the source gives them in different places."}
{"molecule": "gp120 of strain CAP 88 (Clade C) (ligand)", "values": [{"measurement": "Kd", "setting": "[1]", "value": 71, "unit": "nM"}]}
{"molecule": "gp120 of strain 11530 (Clade A) (ligand)", "values": [{"measurement": "Kd", "setting": "[1]", "value": 35, "unit": "nM"}]}
{"molecule": "gp120 of strain R66M (Clade A/C) (ligand)", "values": [{"measurement": "Kd", "setting": "[1]", "value": 18, "unit": "nM"}]}
{"molecule": "CNC(=O)[C@H](Cc1ccccc1)NC(=O)[C@H](CC(C)C)[C@H](CSc1cccs1)C(=O)NO", "note": "[BB-94, Batimastat]", "values": [{"measurement": "reduction of HIV-1BaL infection of CD4+ T cells", "setting": "HIV-1BaL [2]; day 6, intracellular p24", "value": 60, "unit": "%"}, {"measurement": "reduction of HIV-1BaL infection of CD4+ T cells", "setting": "HIV-1BaL [2]; day 11, intracellular p24", "value": 80, "unit": "%"}, {"measurement": "inhibition of HIV-1 viral release among infected individuals", "setting": "HIV-1 viral release; paired DMSO and BB-94 treatment, viremic and aviremic individuals", "value": "30%-90%"}, {"measurement": "reduction in the viral infection of TZM-BL cells compared to the control", "setting": "HIV-1BaL [3]", "value": 80, "unit": "%"}]}
{"molecule": "O=C(O)CN(CCN(CC(=O)O)CC(=O)O)CC(=O)O", "note": "[EDTA]", "values": [{"measurement": "HIV-1BaL infection, intracellular viral capsid p24", "setting": "HIV-1BaL [2]; 5 mM EDTA", "value": "significantly reduced"}]}
{"molecule": "OC[C@H]1O[C@@H](O[C@H]2[C@H](O)[C@@H](O)C(O)O[C@@H]2CO)[C@H](O)[C@@H](O)[C@H]1O", "note": "(some centres unmarked) [lactose]", "values": [{"measurement": "gp120-CD62L binding in the presence of inhibitor", "setting": "[4]", "value": "not"}]}
{"molecule": "O=P(O)(O)C(Cl)(Cl)P(=O)(O)O", "note": "[DMDP, dichloromethylenediphosphonic acid]", "values": [{"measurement": "HIV-1BaL infection", "setting": "HIV-1BaL [2]; 100 μM concentration, intracellular p24", "value": "showed no effect"}, {"measurement": "CD62L shedding", "setting": "CD62L shedding", "value": "showed no effect"}, {"measurement": "activation-induced viral release, virion-associated HIV-1 RNA in supernatant", "setting": "HIV-1 viral release; anti-CD3 stimulated CD4+ T cells from viremic and aviremic individuals, 48 hours", "value": "neither DMSO nor DMDP affected the viral release"}]}
{"molecule": "CC(=O)N[C@H]1C(O)O[C@H](CO)[C@@H](O)[C@@H]1O", "note": "(stereo partly drawn) [N-acetylglucosamine, N-acetyl-D-glucosamine]", "values": [{"measurement": "gp120-CD62L binding in the presence of inhibitor", "setting": "[4]", "value": "not"}]}
{"molecule": "sialyllactose", "values": [{"measurement": "gp120-CD62L binding in the presence of inhibitor", "setting": "[4]", "value": "inhibited"}]}
{"molecule": "fucoidan", "values": [{"measurement": "gp120-CD62L binding in the presence of inhibitor", "setting": "[4]", "value": "inhibited gp120 binding; also recorded: competed with gp120 for receptor binding"}]}
{"molecule": "recombinant gp120 from strain 20SF of Clade C (ligand)", "values": [{"measurement": "Kd", "setting": "[1]", "value": 53, "unit": "nM"}]}
{"molecule": "sialyl-Lewis X", "values": [{"measurement": "gp120-CD62L binding in the presence of inhibitor", "setting": "[4]", "value": "competed with gp120 for receptor binding"}, {"measurement": "gp120-CD62L binding in the presence of inhibitor", "setting": "[4]; listed as Sialyl-Lewis", "value": "inhibited gp120 binding"}]}
{"molecule": "Heparin", "values": [{"measurement": "gp120-CD62L binding in the presence of inhibitor", "setting": "[4]", "value": "competed with gp120 for receptor binding"}, {"measurement": "gp120-CD62L binding in the presence of inhibitor", "setting": "[4]; listed as heparin", "value": "inhibited gp120 binding"}]}
{"molecule": "gp120 of strain RV254 (Clade E) (ligand)", "values": [{"measurement": "Kd", "setting": "[1]", "value": 15, "unit": "nM"}]}
{"molecule": "gp120 of strain Z185 (Clade C) (ligand)", "values": [{"measurement": "Kd", "setting": "[1]", "value": 58, "unit": "nM"}]}
{"molecule": "soluble mucin (PSM-II) (ligand)", "values": [{"measurement": "Kd", "setting": "[5]", "value": 3800, "unit": "nM"}]}
{"molecule": "B1", "values": [{"measurement": "Kd", "setting": "[6]", "value": 19, "unit": "nM"}]}
{"molecule": "recombinant PSGL-1 (ligand, UniProt Q14242 42-295, looked up, also called P-selectin glycoprotein ligand-1) QATEYEYLDYDFLPETEPPEMLRNSTDTTPLTGPGTPESTTVEPAARRSTGLDAGGAVTELTTELANMGNLSTDSAAMEIQTTQPAATEAQTTQPVPTEAQTTPLAATEAQTTRLTATEAQTTPLAATEAQTTPPAATEAQTTQPTGLEAQTTAPAAMEAQTTAPAAMEAQTTPPAAMEAQTTQTTAMEAQTTAPEATEAQTTQPTATEAQTTPLAAMEALSTEPSATEALSMEPTTKRGLFIPFSVSSVTHKG", "values": [{"measurement": "Kd", "setting": "[5]", "value": 50000, "unit": "nM"}]}
{"molecule": "PBJ: recombinant gp120, strain PBJ, SIV (protein) VQYVTVFYGIPAWRNATVPLFCATKNRDTWGTTQCLPDNGDYSELAINVTEAFDAWDNTVTEQAIEDVWNLFETSIKPCVKLTPLCITMRCNKSETDRWGLTGTPAPTTTQTTTTQASTTPTSPITAKVVNDSDPCIKINNCTGLEQEPMVSCKFNMTGLKRDKKREYNETWYSRDLVCEQNSNETDSKCYMNHCNTSVIQESCDKHYWDAIRFRYCAPPGYALLRCNDSNYSGFAPNCTKVVVSSCTRMMETQTSTWFGFNGTRAENRTYIYWHGRSNRTIISLNKYYNLTMRCRRPGNKTVLPVTIMSGLVFHSQPINERPKQAWCWFGGEWKKAIQEVKETLVKHPRYTGTNKTEQIKLTAPGGGDPEVTFMWTNCRGEFLYCKMNWFLNWVENIQNGSRWTSQNQKERQRRNYVPCHIRQIINTWHKVGKNVYLPPREGDLTCNSTVTSLIAEIDWINGNETNITMSAEVAELYRLELGDYKLVEITPIAFAPTSVKRYTTTGASRNKR", "values": [{"measurement": "Kd", "setting": "[7]", "value": "19 ± 2", "unit": "nM"}]}
